Data: EP2951180B1, “2,6,7,8 SUBSTITUTED PURINES AS HDM2 INHIBITORS” (Merck Sharp & Dohme Corp., priority 2013, dated 2014)

Biological target: T1, HDM2 (Homo sapiens, UniProt Q00987)
T1 construct: Thioredoxin (N); made in house; host or cells: E. coli strain BL21(DE3)Rosetta
Assay: HDM2 FRET assay (inhibition of binding of FITC labeled p53-pocket peptide to HDM2)
Settings: Table 7; read-out: FRET IC50
In short: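 TR-FRET with 0.5 nM His-tagged recombinant HDM2, 3 nM FITC-labelled p53 peptide and 0.25 nM Tb-anti-His antibody in PBS, 0.01% BSA, 0.01% Tween-20, 0.1% DMSO. IC50 from em520/em495 ratio over 10-point dilutions, 4-parameter logistic fit.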

T1 sequence (Q00987 17-125): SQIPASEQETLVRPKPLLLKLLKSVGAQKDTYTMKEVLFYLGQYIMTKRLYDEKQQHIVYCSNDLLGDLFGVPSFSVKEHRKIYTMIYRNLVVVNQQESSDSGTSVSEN

Row | Compound | IC50 [µM]
1 | CC(C)c1ccnc(-c2nc3nc(C(=O)O)nc(N[C@H](c4ccccc4)C4CCC4)c3n2Cc2ccc(C(F)(F)F)cc2)c1 [Example 7.16, 6-{[(S)-cyclobutyl(phenyl)methyl]amino}-8-[4-(1-methylethyl)pyridin-2-yl]-7-[4-(trifluoromethyl)benzyl]-7H-purine-2-carboxylic acid] | 0.0406
2 | COc1ccc(C)cc1-c1nc2nc(C(=O)O)nc(N[C@H](C)C3CC(F)(F)C3)c2n1Cc1ccc(C(F)(F)F)cc1 [Example 7.17, 6-{[(1R)-1-(3,3-difluorocyclobutyl)ethyl]amino}-8-(2-methoxy-5-methylphenyl)-7-[4-(trifluoromethyl)benzyl]-7H-purine-2-carboxylic acid] | 0.0589
3 | COc1ccc(C)cc1-c1nc2nc(C(=O)O)nc(NC(C)C3CC(C)C3)c2n1Cc1ccc(C(F)(F)F)cc1 (stereo not shown) [Example 7.18, 8-(2-methoxy-5-methylphenyl)-6-{[1-(3-methylcyclobutyl)ethyl]amino}-7-[4-(trifluoromethyl)benzyl]-7H-purine-2-carboxylic acid] | 0.163
4 | COc1ccc(C)cc1-c1nc2nc(C(=O)O)nc(N[C@H](C)C3CC3(F)F)c2n1Cc1ccc(C(F)(F)F)cc1 (stereo partly drawn) [Example 7.19, 6-{[(1R)-1-(2,2-difluorocyclopropyl)ethyl]amino}-8-(2-methoxy-5-methylphenyl)-7-[4-(trifluoromethyl)benzyl]-7H-purine-2-carboxylic acid] | 0.772

Same assay, conditions: Table 8; read-out: FRET IC50

Row | Compound | IC50 [µM]
5 | CC(C)c1ccnc(-c2nc3nc(C(=O)O)nc(N[C@H](C)C4CCC4)c3n2Cc2ccc(C(F)(F)F)cc2N)c1 [Example 8.1, 7-[2-amino-4-(trifluoromethyl)benzyl]-6-{[(1R)-1-cyclobutylethyl]amino}-8-[4-(propan-2-yl)pyridin-2-yl]-7H-purine-2-carboxylic acid] | 0.00162

Same assay, conditions: Table 9; read-out: FRET IC50

Row | Compound | IC50 [µM]
6 | C[C@H](Nc1nc2nc(C(=O)O)nc(N[C@H](C)C3CCC3)c2n1Cc1ccc(C(F)(F)F)cc1)c1ccc(F)cc1 [Example 9.1, 6-{[(1R)-1-cyclobutylethyl]amino}-8-{[(1S)-1-(4-fluorophenyl)ethyl]amino}-7-[4-(trifluoromethyl)benzyl]-7H-purine-2-carboxylic acid] | 0.00181
7 | C[C@@H](Nc1nc(C(=O)O)nc2nc(N(C)c3ccccc3)n(Cc3ccc(C(F)(F)F)cc3)c12)C1CCC1 [Example 9.2, 6-{[(1R)-1-cyclobutylethyl]amino}-8-[methyl(phenyl)amino]-7-[4-(trifluoromethyl)benzyl]-7H-purine-2-carboxylic acid] | 0.0207
8 | C[C@@H](Nc1nc(C(=O)O)nc2nc(N3CCCCC3Cc3ccccc3)n(Cc3ccc(C(F)(F)F)cc3)c12)C1CCC1 (stereo partly drawn) [Example 9.3, 8-(2-benzylpiperidin-1-yl)-6-{[(1R)-1-cyclobutylethyl]amino}-7-[4-(trifluoromethyl)benzyl]-7H-purine-2-carboxylic acid] | 0.0145
9 | C[C@@H](Nc1nc(-c2noc(=O)[nH]2)nc2nc(N3CCOC[C@H]3c3ccccc3)n(Cc3ccc(Cl)c(F)c3)c12)C1CCC1 [Example 9.4, 3-{7-(4-chloro-3-fluorobenzyl)-6-{[(1R)-1-cyclobutylethyl]amino}-8-[(3R)-3-phenylmorpholin-4-yl]-7H-purin-2-yl}-1,2,4-oxadiazol-5(4H)-one] | 0.000848
10 | C[C@@H](Nc1nc(C(=O)O)nc2nc(N3CCN(C)CC3)n(Cc3ccc(C(F)(F)F)cc3)c12)C1CC1 [Example 9.5, 6-{[(1R)-1-cyclopropylethyl]amino}-8-(4-methylpiperazin-1-yl)-7-[4-(trifluoromethyl)benzyl]-7H-purine-2-carboxylic acid] | 2.35
11 | C[C@@H](Nc1nc(C(=O)O)nc2nc(N[C@@H](CO)c3ccccc3)n(Cc3ccc(C(F)(F)F)cc3)c12)C1CCC1 [Example 9.6, 6-{[(1R)-1-cyclobutylethyl]amino}-8-{[(1R)-2-hydroxy-1-phenylethyl]amino}-7-[4-(trifluoromethyl)benzyl]-7H-purine-2-carboxylic acid] | 0.00147
12 | C[C@H](CO)Nc1nc2nc(C(=O)O)nc(N[C@H](C)C3CCC3)c2n1Cc1ccc(C(F)(F)F)cc1 [Example 9.7, 6-{[(1R)-1-cyclobutylethyl]amino}-8-{[(1R)-2-hydroxy-1-methylethyl]amino}-7-[4-(trifluoromethyl)benzyl]-7H-purine-2-carboxylic acid] | 0.0358
13 | C[C@@H](Nc1nc(C(=O)O)nc2nc(N[C@H](CO)c3ccccc3)n(Cc3ccc(C(F)(F)F)cc3)c12)C1CCC1 [Example 9.8, 6-{[(1R)-1-cyclobutylethyl]amino}-8-{[(1S)-2-hydroxy-1-phenylethyl]amino}-7-[4-(trifluoromethyl)benzyl]-7H-purine-2-carboxylic acid] | 0.0152
14 | C[C@@H](Nc1nc(C(=O)O)nc2nc(N3CCOCC3)n(Cc3ccc(Cl)cc3)c12)C1CC1 [Example 9.9, 7-(4-chlorobenzyl)-6-{[(1R)-1-cyclopropylethyl]amino}-8-morpholin-4-yl-7H-purine-2-carboxylic acid] | 0.574
15 | C[C@@H](CO)Nc1nc2nc(C(=O)O)nc(N[C@H](C)C3CCC3)c2n1Cc1ccc(C(F)(F)F)cc1 [Example 9.10, 6-{[(1R)-1-cyclobutylethyl]amino}-8-{[(1S)-2-hydroxy-1-methylethyl]amino}-7-[4-(trifluoromethyl)benzyl]-7H-purine-2-carboxylic acid] | 0.0859
16 | C[C@@H](Nc1nc(C(=O)O)nc2nc(N3CCCCC3)n(Cc3ccc(C(F)(F)F)cc3)c12)C1CCC1 [Example 9.11, 6-{[(1R)-1-cyclobutylethyl]amino}-8-piperidin-1-yl-7-[4-(trifluoromethyl)benzyl]-7H-purine-2-carboxylic acid] | 0.0176
17 | C[C@@H](Nc1nc(C(=O)O)nc2nc(NC3CCCCC3)n(Cc3ccc(C(F)(F)F)cc3)c12)C1CCC1 [Example 9.12, 6-{[(1R)-1-cyclobutylethyl]amino}-8-(cyclohexylamino)-7-[4-(trifluoromethyl)benzyl]-7H-purine-2-carboxylic acid] | 0.00765
18 | C[C@@H](Nc1nc(C(=O)O)nc2nc(NCc3ccccc3)n(Cc3ccc(C(F)(F)F)cc3)c12)C1CCC1 [Example 9.13, 8-(benzylamino)-6-{[(1R)-1-cyclobutylethyl]amino}-7-[4-(trifluoromethyl)benzyl]-7H-purine-2-carboxylic acid] | 0.00307
19 | C[C@@H](Nc1nc(C(=O)O)nc2nc(N(C)Cc3ccccc3)n(Cc3ccc(C(F)(F)F)cc3)c12)C1CCC1 [Example 9.14, 8-[benzyl(methyl)amino]-6-{[(1R)-1-cyclobutylethyl]amino}-7-[4-(trifluoromethyl)benzyl]-7H-purine-2-carboxylic acid] | 0.00562
20 | C[C@@H](Nc1nc(C(=O)O)nc2nc(N(C)C3CCCCC3)n(Cc3ccc(C(F)(F)F)cc3)c12)C1CCC1 [Example 9.15, 6-{[(1R)-1-cyclobutylethyl]amino}-8-[cyclohexyl(methyl)amino]-7-[4-(trifluoromethyl)benzyl]-7H-purine-2-carboxylic acid] | 0.0074
21 | C[C@H](Nc1nc2nc(C(=O)O)nc(N[C@H](C)C3CCC3)c2n1Cc1ccc(C(F)(F)F)cc1)c1ccccc1 [Example 9.16, 6-{[(1R)-1-cyclobutylethyl]amino}-8-{[(1S)-1-phenylethyl]amino}-7-[4-(trifluoromethyl)benzyl]-7H-purine-2-carboxylic acid] | 0.00191
22 | C[C@@H](Nc1nc2nc(C(=O)O)nc(N[C@H](C)C3CCC3)c2n1Cc1ccc(C(F)(F)F)cc1)c1ccccc1 [Example 9.17] | 0.0158
